Several values for one entry are separate records, joined by “and”; a condition that tells them apart may be missing. Identical values can stand only once. Entries after “also recorded” stand apart in the source; their conditions may differ.
How the values were obtained:
[1] = tested on: human non-small cell lung cancer H460 transplanted tumor; test: RA16-EPI adduct or epirubicin on tumor growth in H460 subcutaneous tumor-bearing mice; format: in vivo; settings: 3 times, day 16
Experimental: In order to clarify the effect of the nucleic acid aptamer RA16-EPI adduct on the growth of human non-small cell lung cancer solid tumors, the inventors used model mice that were injected with human non-small cell lung cancer H460 cells and constructed with a subcutaneous tumor as experimental subjects (initial mean tumor volume was 200-300 mm^3). They were randomly divided into 6 groups, each of which had 5 tumor-bearing mice. One group served as a negative control group (0.1 ml of normal saline was injected intravenously on the 0th, 7th, and 14th days respectively); and the other 5 groups served as treatment groups (different doses of drugs were given every week, and the administration manners and doses are shown in Table 2.). Every 2 days, the tumor diameter of the tumor-bearing mice was measured, the tumor volume was calculated, and the tumor growth curves were drawn (FIG. 5). On the 16th day, the tumor was extracted, the tumor was weighed, and the tumor growth inhibition rate was calculated.

[2] = tested on: human non-small cell lung cancer cell line H460; test: CCK-8 relative viability / proliferation of H460 cells; format: cell-based; settings: for effect on proliferation of H460 cells: CCK-8, 48 h, 300 nM or 0-400 nM
Experimental: (§1) In order to clarify the effect of the nucleic acid aptamer RA16 on the proliferation of human non-small cell lung cancer cell lines, the inventors used the CCK-8 method (CCK-8 kit purchased from Dojindo Molecular Technologies, Inc.) to detect the relative viability of human non-small cell lung cancer cell line H460 (ATCC) and other tumor cells (human cervical cancer Hela cells) (the initial cell concentration was 2×10^4 cells/ml) after 48 h of treatment by 300 nM RA16. The same treatment was performed as the control with the same concentration of SCAP obtained by randomly shuffling the RA16.
(§2) Further, CCK-8 assay was used to detect the growth conditions of human non-small cell lung cancer H460 cells and human cervical cancer Hela cells (the concentration of test cells was about 2×10^4/ml) after 48 hours of treatment with different concentrations of nucleic acid aptamer RA16 and SCAP (concentration 0, 5, 10, 50, 100, 150, 200, 300, 400 nM respectively) with randomly srambled RA16, and after three independent experiments, the results are shown in FIG. 2A-B.
In order to clarify the effect of the nucleic acid aptamer RA16-EPI adduct on the proliferation of human non-small cell lung cancer cell lines, the inventors used the CCK-8 method to detect the relative viability of human non-small cell lung cancer cell line H460 and other tumor cell lines (human cervical cancer Hela cells) (initial cell concentration was 2×10^4 cells/ml) after 48 h of treatment by 375 nM RA16-EPI.

[3] = tested on: human non-small cell lung cancer H460 transplanted tumor; test: RA16 on tumor growth in H460 subcutaneous tumor-bearing mice; format: in vivo; settings: 2 nmol i.v. on days 0, 3, 5, 7, 9; tumor weighed on day 16
Experimental: In order to clarify the effect of the nucleic acid aptamer RA16 on the growth of human non-small cell lung cancer solid tumors, the inventors used model mice that were injected with human non-small cell lung cancer H460 cells and constructed with a subcutaneous tumor as experimental subjects (initial mean tumor volume was 100 mm^3 or so). They were randomly divided into two groups, each of which had 6 tumor-bearing mice. One group served as a negative control group (0.1 ml of normal saline was injected intravenously on the 0th, 3rd, 5th, 7th, and 9th days respectively); and the other was an RA16 treatment group (2 nmol of RA16 was injected intravenously the 0th, 3rd, 5th, 7th, and 9th days respectively). Every other day, the tumor diameter of the tumor-bearing mice was measured, the tumor volume was calculated, and the tumor growth curves were drawn (FIG. 4). On the 16th day, the tumor was extracted, the tumor was weighed, and the tumor growth inhibition rate was calculated.

[4] = tested on: human cervical cancer Hela cells; test: CCK-8 relative viability / proliferation of Hela cells; format: cell-based; settings: CCK-8, 48 h, 300 nM or 0-400 nM
Experimental: as §1
as §2, with “2A-B. […]” for “2A-B.”

[5] = high dose, EPI 1.5 mg/kg/week i.v.
[6] = low dose, EPI 0.5 mg/kg/week i.v.

| Molecule | Inhibition Rate (%) of tumor growth [1, 5] [%] | Tumor Weight [1, 5] [g] | Inhibition Rate (%) of tumor growth ([1]; high dose, EPI 1.5 mg/kg/week i.v., listed as EPI) [%] | Inhibition Rate (%) of tumor growth [1, 6] [%] | Tumor Weight [1, 6] [g] | effect on proliferation of H460 cells [2] | Inhibition Rate (%) of tumor growth [3] | IC50 ([2]; CCK-8, 48 hours, 0-400 nM, read-out: IC50 of inhibition of proliferation of H460 cells) [nM] | effect on human cervical cancer Hela cells [4] |
| --- | --- | --- | --- | --- | --- | --- | --- | --- | --- |
| COc1cccc2c1C(=O)c1c(O)c3c(c(O)c1C2=O)C[C@@](O)(C(=O)CO)C[C@@H]3O[C@H]1C[C@H](N)[C@@H](O)[C@H](C)O1 [Epirubicin] | 47.13 | 1.97 ± 0.38 | 47.13 | 28.76 | 2.65 ± 0.21 |  |  |  |  |
| SCAP: nucleic acid obtained by randomly shuffling the sequence of RA16, SEQ ID NO: 2, control (nucleic acid, listed as RNA, chemistry not given here) GGGAGAGAACAAUGACCUGUUGCAAGCGCGUCGGUAAUUCGCGCACAUGGCAGGCUUCUGAGUGCAUUGCAUCACGUCAGUAG |  |  |  |  |  | little effect |  |  |  |
| RA16: ribonucleic acid aptamer of SEQ ID NO: 1, prepared by in vitro transcription, binds human non-small cell lung cancer (nucleic acid, listed as RNA, chemistry not fully specified) GGGAGAGAACAAUGACCUGCGGUGCCAAGCCGUCGGGUUAUGUUGAUCUCCACAAGGACGAGUGCAUUGCAUCACGUCAGUAG |  |  |  |  |  | obviously inhibit the proliferation | 54.3% and 54.26% | 117 | no inhibitory effect; also recorded: no obvious effects; also recorded: no significant effect |

— patent US10351856B2, “Ribonucleic acid aptamer having inhibitory effect on non-small cell lung cancer and pharmaceutical composition comprising same” (BIOPHARMAGEN CORP., FANGZHOU SUZHOU, priority 2016, dated 2019)
